Assay [1] has as its system organoids derived from Lgr5-GFP mice. The assay is described as follows: flow cytometry of Lgr5-GFP stem cells in organoids. It is filed as cell-based, mouse. To be noted: compared to control DMSO; FIGS. 41A-41C. Here is the method:
The pharmacological effect of dFz7-21 was further investigated by conducting RNA sequencing on intestinal organoid samples that were treated with dFz7-21 for 6 and 24 h. […] Concurrently, there was also an up-regulation of enterocyte markers (pro-differentiation) in the dFz7-21 treated organoids. Among the most down regulated genes upon dFz7-21 treatment were Lgr5, Olfm4 and Asc12. […] Finally, to assess the effect of dFz7-21 directly on stem cells, the presence of GFP+ stem cells in organoids derived from Lgr5-GFP mice was monitored as described in Tian, H. et al. “A reserve stem cell population in small intestine renders Lgr5-positive cells dispensable.” Nature 478, 255-259 (2011). Treatment with dFz7-21 reduced the number of Lgr5-GFP stem cells compared to control DMSO as assayed by flow cytometry (see FIGS. 41A-41C) and confocal microscopy (data not shown). In FIGS. 41A and 41B, Lgr5-GFP organoids were dissociated, treated with SYTOX and analyzed by flow cytometry.

Assay [2] deals with Lgr5-GFP organoids pre-treated with CHIR99021; APC^min organoids. Briefly: RT-PCR in organoids with active downstream Wnt signaling (CHIR99021 or APC^min). It is filed as cell-based, mouse. To be noted: peptide 100 μM, 24 h; CHIR99021 5 μM pre-treatment or Apc mutant background. The protocol: Mouse organoids were established from isolated crypts collected from the entire length of the small intestine and maintained as previously described (Sato et al. (2009) Nature 459, 262-265 (2009). All mouse derived tissue was performed according to the animal use guidelines of Genentech, a Member of the Roche Group, and the Institutional Animal Care and Use Committee, conforming to California State legal and ethical practices. Mouse sex was not selected for. Organoids were passaged at least twice per week and grown using IntestiCult Organoid growth media (cat. no. 06005; StemCell Technologies). Peptides were suspended in DMSO and dissolved in media to 1% DMSO final concentration, then added to organoids to initiate drug treatment. Antibodies were added to 10 μg/ml concentration. […]
Briefly, Lgr5-GFP organoids were pre-treated with DMSO or the Gsk3β inhibitor CHIR99021 (5 μM) for 24 h, then treated with DMSO, dFz7-21 (100 μM), or Fz7-21S (100 μM)±CHIR99021. Transcripts were quantified by RT-PCR for Axin2 (FIG. 42A), and Asc12 (FIG. 42B). In a second set of experiments, APC^min organoids were cultured and treated with DMSO, dFz7-21 (100 μM), Fz7-21S (100 μM) for 24 h, and transcripts were quantified by RT-PCR for Axin2 (FIG. 42C), Asc12 (FIG. 42D), and Lgr5 ([…]).

Take LPSDDLEFWCHVMY [dFz7-21]: the “number of Lgr5-GFP stem cells” value in assay [1] was “reduced”. For the same sequence, the “stem cell (Lgr5, Ascl2) and Wnt signaling (Axin2) markers” value in assay [2] was “Little or no effect”.
